# Results reported in patent publication US20210169690A1, “Self-Retaining Implantable Drug Delivery Device” (GoldenBiotech, LLC, priority 2019, published 2021).
# Key:
# Format in all cases: physicochemical
# [1] = Visual examination of physical appearance and mixing of drug-loaded silicone polymer matrix test samples; conditions: 15% and 20% Travoprost test samples
# Excerpt: To test the loading capacity of a silicone elastomer polymer matrix for a prostaglandin analogue, polymer matrix with different amounts and types of a prostaglandin analogue were made and the physical and mechanical properties of the resulting polymerized drug-loaded matrix were characterized (Tables 1-3). These polymer matrix test samples were made by mixing together a prostaglandin analogue, a liquid cyclic vinyl siloxane elastomer, a crosslinker, and a catalyst using a high-speed mixer and then heated the capped container at 70° C. for 24 hours to cure the mixture. A filler, such as a fumed silica, was also used to provide sufficient mechanical strength to the polymerized matrix. In addition, an inhibitor was used to slow the crosslinking reaction to a workable rate. The resulting thin-disc-shaped drug-loaded polymer matrix was allowed to cool to room temperature and then placed in 4° C. for 24 hours to increase stiffness of the material. The physical appearance of each drug-loaded polymer matrix test sample was examined visually and its mechanical properties analyzed using a durometer.
# [2] = In vitro drug release from silicone polymer matrix test samples in PBS pH 7.4 at 37° C., RPHPLC; conditions: 10% Travoprost matrix plug, PARYLENE about 0.68 μm, two 18G depot channels
# Experimental: To test the controlled release properties of the disclosed drug-loaded silicone polymer matrices, the effects of a coating were examined. In these experiments, test samples were made as described in Example 1 to produce thin-disc-shaped drug-loaded polymer matrix. From this material, test samples were prepared by 1) cutting out rectangular polygons of about 3 mm length, about 1 mm width and about 1 mm height were cut from polymerized drug-loaded material; or 2) cutting out cylindrical plugs of about 3 mm length and having a diameter of about 0.5 mm to about 1 mm. The weight of the test samples were in the range about 0.1 mg to about 4 mg.
# Certain of these cut test samples were then coated using one of three procedures. Cut test samples were coated with a polymer like poly(p-xylylene) (PARYLENE) to a thickness of about 0.10 μm to about 0.95 μm using a vapor phase deposition procedure. Similarly, cut test samples were coated a metal like titanium to a thickness of about 0.10 μm to about 0.95 μm using a vapor phase deposition procedure. Alternatively, cut test samples were physically wrapped with a tape like polytetrafluoroethylene tape and sealed using cyanoacrylate adhesive.
# The presence of opening in a coated test sample was also examined. In these experiments, coated test samples were punctured to produce opening through the coating layer. From one to four opening were made using the tip of an 18G, 23G, 27G or 31G needle. Two types of opening were produced 1) surface pores which created openings only through the coating layer but left the polymer matrix intact; and 2) depot channels which created a tunnel through the entire coated test sample from one end to the other end.
# To examine the drug release properties of a test sample, each sample was placed in 2 mL Eppendorf tube containing 1.5 mL of Phosphate Buffered Saline, pH 7.4 (PBS). These tubes were slowly rocked at 37° C. in an incubator. At given time points the PBS was completely removed from the tube and refilled with fresh PBS. An aliquot of the removed PBS was then analyzed by reversed phase HPLC (RPHPLC) to determine the amount of drug released from the test sample during the incubation period. In these experiments, a 10 μL injection of the test sample aliquot was run on an Agilent 1260 Infinity in a reverse phase isocratic mode using UV detection at 210 nm. The column was a Hypersil GOLD Phenyl column, (Dim. (mm) 250×4.6) and the mobile phase was a 1:1 mixture of acetonitrile to aqueous buffer (comprising HPLC grade water mixed with 5 mM ammonium acetate and 0.02% formic acid). The flow rate was 1.2 mL/min and column temperature was 22° C. Peak detection and quantitation was determined by establishing a calibration curve using known amounts of each drug tested and the amount of drug present in the test sample aliquot interpolated from this calibration curve using ChemStation software.
# [3] = Higuchi equation analysis of drug release data
# Experimental: In order to ascertain whether the mechanism of drug release was based on diffusion, data obtained from various coated silicone polymer matrices were analyzed using the Higuchi equation. This analysis determined the linearity between the cumulative amount of drug released and the square root of time (SQRT). […] As exemplified FIG. 10, data is plotted as the square root of time taken on the x-axis and the cumulative percentage of drug release on the y-axis.
# [4] = Korsmeyer-Peppas analysis of drug release data
# Experimental: To confirm the results obtained based on the Higuchi equation analysis, the data above was also analyzed using the Korsmeyer-Peppas plot, which evaluates the mechanism of drug release by plotting the log of percent drug released over the log time in hours. If n equals 0.45, then Fickian diffusion is indicated for a cylinder (0.42 for cylinder of low aspect ratio). […] As exemplified FIG. 11, data is plotted as the log of cumulative percent drug released on the y-axis and the log time in hours on the x-axis.
# [5] = Modified Higuchi plot (2A versus Q^2/T)
# Experimental: Travoprost and Latanoprost are oily liquids at room temperature whereas Bimatoprost is a solid at room temperature. To determine whether the liquid versus solid phase of these drugs affects their release from the silicone polymer matrix, data was analyzed using an alternative plot based on the Higuchi equation where twice the drug loading value (2A) is plotted on the […] and the average slope of the plot of cumulative drug released squared versus time in hours (Q^2/T) is plotted on the […].
# [6] = Chemical stability of prostaglandin analogues in PBS, RPHPLC; conditions: PBS at pH 4, 7 and 10; 4° C., 33° C. and 50° C.
# Experimental: The chemical stability of prostaglandin analogues was also examined. In these experiments, a prostaglandin analogue was incubated in phospho-buffered saline (PBS) at pH 4, 7 and 10 and at 4° C., 33° C. and 50° C. representing long term storage, eye temperature and accelerate temperature conditions respectively. Analyses were performed by RPHPLC as described in Example 2, noting any hydrolysis products formed. […] This stability is most likely due to the amide linkage in Bimatoprost which is much more hydrolytically stable than the ester linkage in Latanoprost and Travoprost.
smiles,measurement,setting,value
CC(C)OC(=O)CCC/C=C\C[C@@H]1[C@@H](/C=C/[C@@H](O)COc2cccc(C(F)(F)F)c2)[C@H](O)C[C@@H]1O [Travoprost],physical examination of test samples,[1],exhibited more elasticity but had surfaces with tacky attributes and a consistency that was not fully homogeneous
same,Daily Release Rate,[2]; day 1,3.12 µg/day
same,Daily Release Rate,[2]; day 5,2.21 µg/day
same,Daily Release Rate,[2]; day 13,1.15 µg/day
same,Daily Release Rate,[2]; day 22,1.29 µg/day
same,Daily Release Rate,[2]; day 26,1.30 µg/day
same,Daily Release Rate,[2]; day 35,1.16 µg/day
same,Daily Release Rate,[2]; day 43,1.15 µg/day
same,Daily Release Rate,[2]; day 54,1.35 µg/day
same,Daily Release Rate,[2]; day 63,1.16 µg/day
same,Daily Release Rate,[2]; day 70,1.20 µg/day
same,Daily Release Rate,[2]; day 83,0.900 µg/day
same,Daily Release Rate,[2]; day 90,0.882 µg/day
same,Daily Release Rate,[2]; day 97,0.387 µg/day
same,Daily Release Rate,[2]; day 105,0.891 µg/day
same,Daily Release Rate,[2]; day 111,0.798 µg/day
same,Daily Release Rate,[2]; day 162,0.557 µg/day
same,"Average Linear Regression r^2 Value, Higuchi Equation Analysis",[3]; Drug Loading 2.5%,0.976
same,"Average Linear Regression r^2 Value, Higuchi Equation Analysis",[3]; Drug Loading 5%,0.972
same,"Average Linear Regression r^2 Value, Higuchi Equation Analysis",[3]; Drug Loading 10%,0.941
same,"Average n Values, Korsmeyer-Peppas Analysis",[4]; Drug Loading 2.5%,0.543±
same,"Average n Values, Korsmeyer-Peppas Analysis",[4]; Drug Loading 5%,0.507±
same,"Average n Values, Korsmeyer-Peppas Analysis",[4]; Drug Loading 10%,0.453±
same,"Average n Values, Korsmeyer-Peppas Analysis, Mean",[4]; Mean over drug loadings,0.50 ± 0.09
same,average slope of cumulative drug released squared versus time in hours (Q^2/T),[5]; Loading (A %) 1.0,0.071 ± 0.001
same,average slope of cumulative drug released squared versus time in hours (Q^2/T),[5]; Loading (A %) 2.5,0.388 ± 0.046
same,average slope of cumulative drug released squared versus time in hours (Q^2/T),[5]; Loading (A %) 5.0,1.097 ± 0.218
same,average slope of cumulative drug released squared versus time in hours (Q^2/T),[5]; Loading (A %) 10,15.821 ± 4.141
same,relationship of Q^2/T to 2A in modified Higuchi plot,"[5]; Table 10, FIG. 12 and FIG. 13",curvilinear relationship
same,chemical stability (hydrolysis products),[6],excellent stability
